Where no end group is shown, it is not given here.
How the values were obtained:
E. coli ATCC25922 = format: cell-based, Escherichia coli; details: MHB; for MIC E. coli, No NaCl: 0 mM NaCl; for MIC E. coli, No NaCl / MIC E. coli, With 50mM NaCl / MIC E. coli, With 100mM NaCl / MIC E. coli, With 150mM NaCl: triplicate, mode
Procedure: (§1) The activity of peptides was determined against the Gram-positive Staphylococcus aureus (ATCC 25923), and the Gram-negative Escherichia coli (ATCC 25922) and Pseudomonas aeruginosa (ATCC 9027) bacteria. Selected peptides were also tested against two clinical isolates of methicillin-resistant Staphylococcus aureus (MRSA), M173525 and M180920, kindly provided by Dr P. B. Ward (Microbiology Department, Austin and Repatriation Medical Centre, Heidelberg West, Victoria, Australia). The Minimum inhibitory concentration (MIC) of peptides was determined by the microtitre broth dilution method, as described in Phillips et al.. Briefly, bacteria were grown in Mueller-Hinton Broth (MHB) at 37 °C overnight with shaking (200 rpm). The cultures were adjusted to 0.5 McFarland turbidity standard (approximately 1 × 10^8 colony forming units (CFU)/mL), then diluted 1:100 in MHB (1 × 10^6 CFU/mL). A total of 75 μL of these suspensions were mixed with 25 μL of peptide solutions (final concentrations 250 to 0.5 μg/mL) and the microtitre plates incubated overnight at 37 °C. Positive growth controls (inoculum and MHB, with no peptide) and sterility controls (0.01% glacial acetic) were also included. Post-incubations, the absorbance of cultures at 595 nm was measured using a microplate reader (POLARstar Omega, Germany). […] To evaluate salt sensitivity of peptides up to physiological levels (150 mM NaCl), overnight cultures of S. aureus and E. coli adjusted to 0.5 McFarland turbidity standard were diluted 1:100 in MHB containing 0, 50, 100 or 150 mM NaCl, and the MICs of peptides determined as above. All tests were conducted in triplicate. The results are shown as the mode of values obtained.

S. aureus ATCC25923 = format: cell-based, Staphylococcus aureus; details: MHB; for MIC S. aureus, No NaCl: 0 mM NaCl; for MIC S. aureus, No NaCl / MIC S. aureus, With 50mM NaCl / MIC S. aureus, With 100mM NaCl / MIC S. aureus, With 150mM NaCl: triplicate, mode
Procedure: as §1

MRSA M173525 = format: cell-based, methicillin-resistant Staphylococcus aureus; details: clinical isolate; MHB, 37 °C overnight; mode of three independent experiments
Procedure: as §1

MRSA M180920 = format: cell-based, methicillin-resistant Staphylococcus aureus; details: clinical isolate; MHB, 37 °C overnight; mode of three independent experiments
Procedure: as §1

MRSA M173525 biofilm = assay: Inhibition of preformed 6 h biofilm (CV and MTT assays); format: cell-based, methicillin-resistant Staphylococcus aureus; details: 37 °C, triplicate
Procedure: The effects of PuroA and other selected peptides (based on their antibacterial activity) on both the initial cell attachment and 6 h preformed biofilms of MRSA on polystyrene were tested as described by Jadhav et al., at their respective 0.5 × MIC, 1 × MIC, and 2 × MIC concentrations. All tests were conducted in triplicate. For testing the inhibition of initial cell attachment, 100 μL of peptide solutions were added to the microtitre plates, then mixed with 100 μL of M173525 cell suspension (1 × 10^6 CFU/mL, cultured in tryptic soy broth medium (TSB; Oxoid) containing 1% glucose), or 100 μL of sterile MilliQ water as negative control. The plates were incubated at 37 °C for 24 h to allow cell attachment. The biofilm formation was then assessed using CV and MTT assays. […] Peptide solutions (100 μL) were then added, the plates incubated at 37 °C for 1 h and the biofilms assessed.
The assay works as an indicator of attached living and non-living biomass. Indirect assessment of cell attachment of MRSA was estimated using the modified CV assay as per Jadhav et al.. After incubations of the plates (for 24 h or 1 h, as above), the culture medium from each well was removed gently and any non-adherent bacteria removed by washing the plates five times with sterile distilled water (dH2O). The plates were air-dried, then oven-dried at 60 °C for 1 h. The biofilm cells in the wells were stained with 100 μL of 1% CV and incubated for 15 min at room temperature. Excess stain was removed by washing the plates three times with sterile dH2O. Ethanol (95%, 125 µL) was transferred to each well to de-stain the cells. The de-staining solution from each well was then transferred to a new plate and its absorbance measured at 595 nm. The percentage inhibition of biomass formation concentration was calculated as: ((OD595 nm control well without peptide − OD5 95 well with peptide)/OD595 nm control well without peptide) × 100. All tests were conducted in triplicate.
A modified methylthiazotetrazolium (MTT) (3-[4,5-dimethyl thiazol-2-yl]-2, 5-diphenyltetrazolium bromide) reduction assay was used, wherein the blue product (MTT salt reduced to formazan by dehydrogenases) is taken as a respiratory indicator of live cells. Briefly, MTT (Sigma-Aldrich, Gillingham, UK) was dissolved in PBS to 5 mg/mL. After incubations of plates (for 24 h or 1 h, as above), the culture medium was gently removed and the plates air-dried. PBS (100 μL) and MTT (5 µL, 5 mg/mL) were added to each well and the plates incubated for 3 h at 37 °C. The insoluble purple product was dissolved in 100 µL of dimethyl sulphoxide (DMSO, Sigma-Aldrich, Gillingham, UK) and the absorbance measured at 570 nm. The % inhibition of metabolic activity was calculated as: ((OD570 nm control well without peptide − OD570 nm well with peptide)/OD570 nm control well without peptide) × 100. All tests were conducted in triplicate.

[1] = 37 °C overnight, A595, mode of three independent experiments

| Substance | MIC E. coli, No NaCl (E. coli ATCC25922) [µg/mL] | MIC E. coli, With 50mM NaCl (E. coli ATCC25922) [µg/mL] | MIC E. coli, With 100mM NaCl (E. coli ATCC25922) [µg/mL] | MIC E. coli, With 150mM NaCl (E. coli ATCC25922) [µg/mL] | MIC S. aureus, No NaCl (S. aureus ATCC25923) [µg/mL] | MIC S. aureus, With 50mM NaCl (S. aureus ATCC25923) [µg/mL] | MIC S. aureus, With 100mM NaCl (S. aureus ATCC25923) [µg/mL] | MIC S. aureus, With 150mM NaCl (S. aureus ATCC25923) [µg/mL] | MIC MRSA M173525 (MRSA M173525) [µg/mL] | MIC MRSA M180920 (MRSA M180920) [µg/mL] | % Inhibition of Preformed 6 h MRSA Biofilm after 1 h Incubation, CV (MRSA M173525 biofilm; 0.5 × MIC) [%] | % Inhibition of Preformed 6 h MRSA Biofilm after 1 h Incubation, MTT (MRSA M173525 biofilm; 0.5 × MIC) [%] | % Inhibition of Preformed 6 h MRSA Biofilm after 1 h Incubation, CV (MRSA M173525 biofilm; 1 × MIC) [%] | % Inhibition of Preformed 6 h MRSA Biofilm after 1 h Incubation, MTT (MRSA M173525 biofilm; 1 × MIC) [%] | % Inhibition of Preformed 6 h MRSA Biofilm after 1 h Incubation, CV (MRSA M173525 biofilm; 2 × MIC) [%] | % Inhibition of Preformed 6 h MRSA Biofilm after 1 h Incubation, MTT (MRSA M173525 biofilm; 2 × MIC) [%] | MIC E. coli ATCC25922 (E. coli ATCC25922; [1]) [µg/mL] | MIC S. aureus ATCC25923 (S. aureus ATCC25923; [1]) [µg/mL] |
| --- | --- | --- | --- | --- | --- | --- | --- | --- | --- | --- | --- | --- | --- | --- | --- | --- | --- | --- |
| RKRWWRWWKWWKR-NH2 [Peptide P1] | 16 | 16 | 16 | 16 | 16 | 16 | 16 | 16 | 16 | 8 | 70 ± 6.9 | 93 ± 5.0 | 74 ± 5.8 | 95 ± 3.8 | 78 ± 3.1 | 95 ± 4.0 |  |  |
| WRWWKWW-NH2 [Peptide W7] | 4 | 4 | 4 | 4 | 8 | 8 | 8 | 8 | 8 | 8 | 67 ± 6.0 | 88 ± 2.5 | 75.5 ± 3.0 | 90 ± 4.7 | 75 ± 5.5 | 94 ± 0.5 | 4 | 8 |

Reference: paper PMC7696940, “Effects of Rationally Designed Physico-Chemical Variants of the Peptide PuroA on Biocidal Activity towards Bacterial and Mammalian Cells” (International Journal of Molecular Sciences, 2020)
